Measurements reported in US9149038B2, “4-amino-6-(heterocyclic)picolinates and 6-amino-2-(heterocyclic)pyrimidine-4-carboxylates and their use as herbicides” (Dow AgroSciences LLC, priority 2013, dated 2015).
Read-outs that look alike come from different tables or passages of the source.

Experiments:
[1] = system: Key Grass and Sedge Weeds as well as Grass Crops; assay: Post-Emergent Test II: postemergent herbicidal activity, visual rating after 14 d (Table 8); type: in vivo; settings: post-emergence, 336 h; for pest or weed control at 35 g/ha: 35 g ai/ha; for pest or weed control at 70 g/ha: 70 g ai/ha; for pest or weed control at 140 g/ha: 140 g ai/ha
How it was run: (§1)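 Greenhouse plants at first or second true leaf stage sprayed with compound in acetone/DMSO-based spray solution with crop oil concentrate and Triton X-155 at 187 L/ha, tested at highest rate and ½× to 1/16× dilutions; solvent blank controls. Injury rated visually 0–100% versus untreated plants after 14 d.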

[2] = system: Key Broadleaf Weed and Crop Species; assay: Post-Emergent Test II: postemergent herbicidal activity, visual rating after 14 d (Table 7); type: in vivo; settings: post-emergence, 336 h; for pest or weed control at 35 g/ha: 35 g ai/ha; for pest or weed control at 70 g/ha: 70 g ai/ha; for pest or weed control at 140 g/ha: 140 g ai/ha
How it was run: as §1

[3] = barnyardgrass (Echinochloa crus-galli), read-out: Visual Growth Reduction (%) 14 Days After Application ECHCG
[4] = giant foxtail (Setaria faberi), read-out: Visual Growth Reduction (%) 14 Days After Application SETFA
[5] = maize, corn (Zea mays), read-out: Visual Growth Reduction (%) 14 Days After Application ZEAMX
[6] = rice (Oryza sativa), read-out: Visual Growth Reduction (%) 14 Days After Application ORYSA
[7] = wheat, spring (Triticum aestivum), read-out: Visual Growth Reduction (%) 14 Days After Application TRZAS
[8] = yellow nutsedge (Cyperus esculentus), read-out: Visual Growth Reduction (%) 14 Days After Application CYPES
[9] = lambsquarters (Chenopodium album), read-out: Visual Growth Reduction (%) 14 Days After Application CHEAL
[10] = oilseed rape, canola (Brassica napus), read-out: Visual Growth Reduction (%) 14 Days After Application BRSNN
[11] = redroot pigweed (Amaranthus retroflexus), read-out: Visual Growth Reduction (%) 14 Days After Application AMARE
[12] = sunflower (Helianthus annuus), read-out: Visual Growth Reduction (%) 14 Days After Application HELAN
[13] = velvetleaf (Abutilon theophrasti), read-out: Visual Growth Reduction (%) 14 Days After Application ABUTH
[14] = wild poinsettia (Euphorbia heterophylla), read-out: Visual Growth Reduction (%) 14 Days After Application EPHHL

| Structure (SMILES) | pest or weed control at 35 g/ha [1, 3] | pest or weed control at 70 g/ha [1, 3] | pest or weed control at 140 g/ha [1, 3] | pest or weed control at 35 g/ha [1, 4] | pest or weed control at 70 g/ha [1, 4] | pest or weed control at 140 g/ha [1, 4] | pest or weed control at 35 g/ha [1, 5] | pest or weed control at 70 g/ha [1, 5] | pest or weed control at 140 g/ha [1, 5] | pest or weed control at 35 g/ha [1, 6] | pest or weed control at 70 g/ha [1, 6] | pest or weed control at 140 g/ha [1, 6] | pest or weed control at 35 g/ha [1, 7] | pest or weed control at 70 g/ha [1, 7] | pest or weed control at 140 g/ha [1, 7] | pest or weed control at 35 g/ha [1, 8] | pest or weed control at 70 g/ha [1, 8] | pest or weed control at 140 g/ha [1, 8] | pest or weed control at 35 g/ha [2, 9] | pest or weed control at 70 g/ha [2, 9] | further results |
| --- | --- | --- | --- | --- | --- | --- | --- | --- | --- | --- | --- | --- | --- | --- | --- | --- | --- | --- | --- | --- | --- |
| Nc1c(F)c(-c2ccc(I)c3c2OC(F)(F)O3)nc(C(=O)O)c1Cl [Compound 81] | 0 to 29% | 0 to 29% | 0 to 29% | 0 to 29% | 0 to 29% | 0 to 29% | 0 to 29% | 0 to 29% | 0 to 29% | 0 to 29% | 0 to 29% | 0 to 29% | 0 to 29% | 0 to 29% | 0 to 29% | 0 to 29% | 0 to 29% | 0 to 29% | 85 to 94% | 85 to 94% | pest or weed control at 140 g/ha [2, 9]: 85 to 94%; pest or weed control at 35 g/ha [2, 10]: 75 to 84%; pest or weed control at 70 g/ha [2, 10]: 85 to 94%; pest or weed control at 140 g/ha [2, 10]: 95 to 100%; pest or weed control at 35 g/ha [2, 11]: 95 to 100%; pest or weed control at 70 g/ha [2, 11]: 95 to 100%; pest or weed control at 140 g/ha [2, 11]: 95 to 100%; pest or weed control at 35 g/ha [2, 12]: 85 to 94%; pest or weed control at 70 g/ha [2, 12]: 85 to 94%; pest or weed control at 140 g/ha [2, 12]: 85 to 94%; pest or weed control at 35 g/ha [2, 13]: 0 to 29%; pest or weed control at 70 g/ha [2, 13]: 60 to 74%; pest or weed control at 140 g/ha [2, 13]: 75 to 84%; pest or weed control at 35 g/ha [2, 14]: 0 to 29%; pest or weed control at 70 g/ha [2, 14]: 0 to 29%; pest or weed control at 140 g/ha [2, 14]: 0 to 29% |
| COC(=O)c1nc(-c2cc3c(cc2F)OC(F)(F)O3)nc(N)c1Cl [Compound 56] | 75 to 84% | 75 to 84% | 95 to 100% | 60 to 74% | 75 to 84% | 75 to 84% | 45 to 59% | 60 to 74% | 75 to 84% | 0 to 29% | 0 to 29% | 0 to 29% | 0 to 29% | 30 to 44% | 30 to 44% | 0 to 29% | 45 to 59% | 45 to 59% | 0 to 29% | 0 to 29% | pest or weed control at 140 g/ha [2, 9]: 0 to 29%; pest or weed control at 35 g/ha [2, 10]: 0 to 29%; pest or weed control at 70 g/ha [2, 10]: 0 to 29%; pest or weed control at 140 g/ha [2, 10]: 0 to 29%; pest or weed control at 35 g/ha [2, 11]: 0 to 29%; pest or weed control at 70 g/ha [2, 11]: 0 to 29%; pest or weed control at 140 g/ha [2, 11]: 0 to 29%; pest or weed control at 35 g/ha [2, 12]: 85 to 94%; pest or weed control at 70 g/ha [2, 12]: 85 to 94%; pest or weed control at 140 g/ha [2, 12]: 85 to 94%; pest or weed control at 35 g/ha [2, 13]: 0 to 29%; pest or weed control at 70 g/ha [2, 13]: 0 to 29%; pest or weed control at 140 g/ha [2, 13]: 0 to 29%; pest or weed control at 35 g/ha [2, 14]: 60 to 74%; pest or weed control at 70 g/ha [2, 14]: 95 to 100%; pest or weed control at 140 g/ha [2, 14]: 95 to 100% |
| Nc1c(Cl)c(C(=O)O)nc(-c2ccc3c(c2F)OC(F)(F)O3)c1Cl [Compound 5] | 0 to 29% | 0 to 29% | 0 to 29% | 0 to 29% | 0 to 29% | 0 to 29% | 0 to 29% | 0 to 29% | 0 to 29% | 0 to 29% | 0 to 29% | 0 to 29% | 0 to 29% | 0 to 29% | 0 to 29% | 0 to 29% | 0 to 29% | 0 to 29% | 0 to 29% | 0 to 29% | pest or weed control at 140 g/ha [2, 9]: 0 to 29%; pest or weed control at 35 g/ha [2, 10]: 45 to 59%; pest or weed control at 70 g/ha [2, 10]: 60 to 74%; pest or weed control at 140 g/ha [2, 10]: 60 to 74%; pest or weed control at 35 g/ha [2, 11]: 0 to 29%; pest or weed control at 70 g/ha [2, 11]: 0 to 29%; pest or weed control at 140 g/ha [2, 11]: 0 to 29%; pest or weed control at 35 g/ha [2, 12]: 30 to 44%; pest or weed control at 70 g/ha [2, 12]: 30 to 44%; pest or weed control at 140 g/ha [2, 12]: 45 to 59%; pest or weed control at 35 g/ha [2, 13]: 0 to 29%; pest or weed control at 70 g/ha [2, 13]: 0 to 29%; pest or weed control at 140 g/ha [2, 13]: 0 to 29%; pest or weed control at 35 g/ha [2, 14]: 0 to 29%; pest or weed control at 70 g/ha [2, 14]: 0 to 29%; pest or weed control at 140 g/ha [2, 14]: 0 to 29% |
